Experiments:
[1] = molecular target: T1, Angiotensin-converting enzyme (Oryctolagus cuniculus, UniProt P12822); assay: Compound was tested for its inhibitory activity against Angiotensin I converting enzyme
T1 sequence (P12822 whole entry): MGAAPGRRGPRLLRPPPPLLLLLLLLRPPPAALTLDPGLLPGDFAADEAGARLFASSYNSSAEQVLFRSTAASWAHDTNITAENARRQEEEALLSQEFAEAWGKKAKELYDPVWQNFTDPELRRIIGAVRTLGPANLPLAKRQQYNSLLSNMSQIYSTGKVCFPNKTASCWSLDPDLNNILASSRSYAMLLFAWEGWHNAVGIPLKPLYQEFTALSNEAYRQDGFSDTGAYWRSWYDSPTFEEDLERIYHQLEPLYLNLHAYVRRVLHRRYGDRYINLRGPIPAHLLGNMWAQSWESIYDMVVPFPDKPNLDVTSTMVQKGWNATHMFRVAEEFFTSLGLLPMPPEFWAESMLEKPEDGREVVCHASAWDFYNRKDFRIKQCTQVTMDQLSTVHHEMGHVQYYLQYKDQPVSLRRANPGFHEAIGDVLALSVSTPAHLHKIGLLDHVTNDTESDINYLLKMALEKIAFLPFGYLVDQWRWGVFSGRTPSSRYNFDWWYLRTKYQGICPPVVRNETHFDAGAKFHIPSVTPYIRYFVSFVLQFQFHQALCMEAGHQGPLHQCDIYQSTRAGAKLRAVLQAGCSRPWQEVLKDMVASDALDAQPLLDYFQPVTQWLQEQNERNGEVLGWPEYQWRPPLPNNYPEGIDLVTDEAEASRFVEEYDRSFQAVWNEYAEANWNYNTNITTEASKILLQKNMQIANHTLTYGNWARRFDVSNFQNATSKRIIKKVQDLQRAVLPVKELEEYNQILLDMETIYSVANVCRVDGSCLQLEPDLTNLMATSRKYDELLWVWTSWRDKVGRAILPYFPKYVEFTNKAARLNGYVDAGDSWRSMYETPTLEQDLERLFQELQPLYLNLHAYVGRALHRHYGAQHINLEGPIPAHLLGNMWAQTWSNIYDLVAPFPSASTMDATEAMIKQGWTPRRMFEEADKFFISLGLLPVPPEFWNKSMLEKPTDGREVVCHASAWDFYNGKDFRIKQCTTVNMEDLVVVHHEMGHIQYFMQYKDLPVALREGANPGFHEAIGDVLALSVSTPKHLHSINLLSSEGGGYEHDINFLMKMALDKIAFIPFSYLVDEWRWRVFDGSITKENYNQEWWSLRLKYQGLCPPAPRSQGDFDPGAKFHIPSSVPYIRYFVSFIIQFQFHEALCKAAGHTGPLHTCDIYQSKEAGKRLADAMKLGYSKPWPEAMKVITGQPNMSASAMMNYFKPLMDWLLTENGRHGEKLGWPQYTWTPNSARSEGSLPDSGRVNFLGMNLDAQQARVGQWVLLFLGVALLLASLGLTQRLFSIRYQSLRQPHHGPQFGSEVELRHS

[2] = molecular target: T2, Endothelin-converting enzyme 1 (Homo sapiens, UniProt P42892); assay: Compound was tested for its inhibitory activity against Endothelin-converting enzyme at the concentration of 1 uM; Inactive
T2 sequence (P42892 whole entry): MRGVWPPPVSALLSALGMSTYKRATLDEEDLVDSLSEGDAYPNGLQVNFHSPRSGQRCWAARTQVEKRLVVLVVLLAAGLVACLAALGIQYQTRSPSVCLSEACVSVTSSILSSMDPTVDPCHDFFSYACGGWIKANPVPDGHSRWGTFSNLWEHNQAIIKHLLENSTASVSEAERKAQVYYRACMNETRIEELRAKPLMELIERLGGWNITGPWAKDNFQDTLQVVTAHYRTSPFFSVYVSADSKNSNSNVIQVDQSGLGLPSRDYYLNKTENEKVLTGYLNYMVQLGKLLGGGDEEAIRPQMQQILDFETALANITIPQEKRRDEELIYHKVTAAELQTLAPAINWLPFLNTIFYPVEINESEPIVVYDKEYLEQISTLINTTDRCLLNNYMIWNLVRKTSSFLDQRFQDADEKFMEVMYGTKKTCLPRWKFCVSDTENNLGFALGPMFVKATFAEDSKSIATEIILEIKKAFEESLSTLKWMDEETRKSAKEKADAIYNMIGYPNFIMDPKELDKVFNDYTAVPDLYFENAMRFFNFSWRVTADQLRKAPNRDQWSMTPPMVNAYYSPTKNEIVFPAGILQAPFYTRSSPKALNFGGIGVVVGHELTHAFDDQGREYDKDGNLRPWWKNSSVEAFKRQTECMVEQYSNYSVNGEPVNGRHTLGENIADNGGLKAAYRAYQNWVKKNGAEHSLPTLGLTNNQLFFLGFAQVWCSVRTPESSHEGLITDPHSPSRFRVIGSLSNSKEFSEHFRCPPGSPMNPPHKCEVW

[3] = molecular target: T3, Neprilysin (Rattus norvegicus, UniProt P07861); assay: Compound was tested for its inhibitory activity against neutral endopeptidase 24.11 enzyme at the concentration of 10 uM; Inactive
T3 sequence (P07861 whole entry): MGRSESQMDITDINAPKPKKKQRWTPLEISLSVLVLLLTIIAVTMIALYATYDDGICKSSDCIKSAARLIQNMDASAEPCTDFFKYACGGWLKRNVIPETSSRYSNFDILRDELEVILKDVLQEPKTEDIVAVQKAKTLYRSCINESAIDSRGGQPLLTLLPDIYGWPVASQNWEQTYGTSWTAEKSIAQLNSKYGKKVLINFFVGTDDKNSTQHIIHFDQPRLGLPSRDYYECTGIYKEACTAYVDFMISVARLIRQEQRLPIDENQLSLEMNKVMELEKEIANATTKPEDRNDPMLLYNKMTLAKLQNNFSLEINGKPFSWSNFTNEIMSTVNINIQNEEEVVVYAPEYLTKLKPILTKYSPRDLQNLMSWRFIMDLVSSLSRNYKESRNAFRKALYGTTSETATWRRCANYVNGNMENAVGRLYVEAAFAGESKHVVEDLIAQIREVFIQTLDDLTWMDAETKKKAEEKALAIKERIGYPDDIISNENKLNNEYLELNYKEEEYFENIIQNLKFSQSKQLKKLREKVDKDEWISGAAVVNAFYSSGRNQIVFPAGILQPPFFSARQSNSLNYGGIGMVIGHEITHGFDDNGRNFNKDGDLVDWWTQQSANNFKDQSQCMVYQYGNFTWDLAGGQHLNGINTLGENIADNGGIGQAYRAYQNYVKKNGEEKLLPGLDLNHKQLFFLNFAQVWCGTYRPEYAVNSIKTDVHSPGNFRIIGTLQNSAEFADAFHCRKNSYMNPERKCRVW

Row | IC50 [1] [nM] | IC50 [2] | IC50 [3] | Compound
1 | 5.3 | Not Active | Not Active | C[C@H](CS)C(=O)N1[C@@H]2C[C@@H]2CC[C@H]1C(=O)O
2 | 7.6 | Not Active | Not Active | C[C@H](CS)C(=O)N1[C@@H]2C[C@@H]2C[C@H]1C(=O)O
3 | 6.6 | Not Active | Not Active | C[C@H](CS)C(=O)N1[C@H](C(=O)O)C[C@@H]2C[C@@H]21
